According to ChEMBL document CHEMBL5634164, “Absolute Configuration of Oxabornyl Polyenes Prugosenes A1-A3 and Structural Revision of Prugosene A2” (J Nat Prod, 2024):

Columns and labels:
[1] = Cytotoxicity against HEp-2 cells; assay type: toxicity, cell-based; conditions: human
[2] = test system: Respiratory syncytial virus; assay: Antiviral activity against RSV A2 ATCC VR-1540 infected in HEp-2 cells assessed as inhibition of virus induced cytopathic effect measured after 72 hrs; assay type: functional, organism-based; conditions: human respiratory syncytial virus, A2 ATCC VR-1540, HEp-2, 72 h

Compound	CC50 [1]	IC50 [2]
NC(=O)c1ncn([C@@H]2O[C@H](CO)[C@@H](O)[C@H]2O)n1 [RIBAVIRIN]	> 100 µM	15 µM
CC1=C[C@](C)(O)[C@H](C)O[C@@H]1/C(C)=C/C=C/C=C/C=C/C=C/C1(C)C2OC(=O)C1(C)C(=O)C2C (stereo partly drawn)	> 100 µM	6.3 µM
CC1=C[C@@](C)(O)[C@@H](/C(C)=C/C=C/C=C/C=C/C=C/C2(C)C3OC(=O)C2(C)C(=O)C3C)O[C@H]1C (stereo partly drawn)	> 100 µM	25 µM
CC1=C[C@@](C)(O)[C@H](/C(C)=C/C=C/C=C/C=C/C=C/C2(C)C3OC(=O)C2(C)C(=O)C3C)O[C@H]1C (stereo partly drawn)	> 100 µM	12 µM
